This is an account of results in ChEMBL document CHEMBL1201862, “PubChem BioAssay data set” (2004).

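Where inhibition never reached the appropriate level, the endpoint shown equals the highest concentration tested. Otherwise, values were interpolated linearly from a five-concentration, 48-hour dose response in 96-well plates. GI50: concentration for 50% inhibition of growth.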 Calls of active or inactive are those of the source. Rule as the data show it: active = GI50 up to about 1.1 µM and inactive = higher. Where only a bound is given, the exact number is not on record here.

Some test systems named below: A549; EKVX; HCT-15; HL-60; HT-29; K562; LOX IMVI; Malme-3M; NCI-H226; NCI-H522; OVCAR-4; OVCAR-8; SF-295; SK-MEL-2; SK-OV-3; U-251; UO-31; MDA-MB-435; PC-3; Hs-578T.
Experiment in all cases: inhibition of tumour cell growth, NCI panel, 48 h

Turning to `O=C1CCC2(c3ccccc3)Nc3cc(Cl)ccc3N12` (centres undefined), the GI50 in the experiment with A549 was 31 µM (inactive); in the experiment on EKVX, 33.3 µM (inactive); in the experiment on HCT-15, 35.2 µM; in the experiment with HL-60 it was 20.8 µM (inactive); in the experiment with HT-29, 31.7 µM (inactive); in the experiment with K562 it was 32 µM (inactive). For the same compound, the GI50 in the experiment with LOX IMVI was 33 µM (inactive); with Malme-3M, 25.8 µM (inactive); with NCI-H226, 19.2 µM (inactive); in the experiment with NCI-H522, 26.9 µM (inactive); in the experiment on OVCAR-4, 35.2 µM (inactive); with OVCAR-8 it was 38.6 µM (inactive). The GI50 with SF-295 was 27.4 µM (inactive); in the experiment on SK-MEL-2, 22.2 µM (inactive); in the experiment with SK-OV-3 it was 43.8 µM (inactive); in the experiment on U-251, 48 µM (inactive); with UO-31, 25.5 µM (inactive).
On to `COc1ccc(-n2c(=O)c3nc(S)[nH]c3n(-c3ccc(OC)cc3)c2=S)cc1`, for which the GI50 in the experiment with A549 was > 100 µM (inactive); in the experiment on EKVX it was > 100 µM (inactive); with HCT-15, over 100 µM; in the experiment on HL-60, > 100 µM (inactive); with HT-29, > 100 µM (inactive); in the experiment on K562, > 100 µM (inactive). The GI50 with LOX IMVI is > 100 µM (inactive); in the experiment on MDA-MB-435 it was > 100 µM (inactive); in the experiment on NCI-H226 it was > 100 µM (inactive); in the experiment on NCI-H522, 57.4 µM (inactive); in the experiment with OVCAR-4 it was > 100 µM (inactive); with OVCAR-8, > 100 µM (inactive). Also, the GI50 in the experiment on PC-3, in the experiment on SF-295, in the experiment with SK-MEL-2, in the experiment on SK-OV-3, with U-251 and with UO-31 was > 100 µM (inactive) throughout.
On to `CCc1ccc2oc(-c3cc(O)c(-c4nc5cc(CC)ccc5o4)cc3O)nc2c1`, for which the GI50 was > 100 µM (inactive) with A549; > 100 µM (inactive) in the experiment with EKVX; over 100 µM with HCT-15; > 100 µM (inactive) with HL-60; > 100 µM (inactive) with Hs-578T; > 100 µM (inactive) in the experiment on K562. The GI50 in the experiment on LOX IMVI, in the experiment on MDA-MB-435, with NCI-H226, in the experiment on OVCAR-8, with PC-3 and in the experiment with SK-MEL-2 was > 100 µM (inactive) in each case. Besides, the GI50 in the experiment on SK-OV-3, with U-251 and in the experiment with UO-31 was > 100 µM (inactive) throughout.
In the case of `O=c1c2cc(-c3ccccc3)cnc2sn1-c1ccc(Oc2ccccc2)cc1`, the GI50 is 19.5 µM (inactive) with A549; 68.5 µM (inactive) in the experiment on EKVX; 56.5 µM in the experiment on HCT-15; > 100 µM (inactive) in the experiment on HL-60; 23.4 µM (inactive) in the experiment on HT-29; > 100 µM (inactive) with K562. For the same compound, the GI50 in the experiment on MDA-MB-435 was 41.1 µM (inactive); in the experiment on Malme-3M, 92.5 µM (inactive); in the experiment with NCI-H226, 87.5 µM (inactive); in the experiment on NCI-H522 it was 34.4 µM (inactive); in the experiment with OVCAR-4, 19.9 µM (inactive); with OVCAR-8, 26.9 µM (inactive). Besides, the GI50 is 20.4 µM (inactive) in the experiment on PC-3; 31 µM (inactive) with SF-295; > 100 µM (inactive) in the experiment with SK-MEL-2; > 100 µM (inactive) in the experiment on SK-OV-3; 23.6 µM (inactive) in the experiment on U-251; 47 µM (inactive) in the experiment with UO-31.
Turning to `Cc1c(C#N)c(=N)oc2ccccc12`, the GI50 with A549 was > 100 µM (inactive); with EKVX, 49.8 µM (inactive); in the experiment with HCT-15 it was 83.2 µM; in the experiment on HL-60 it was > 100 µM (inactive); with HT-29 it was > 100 µM (inactive); in the experiment on Hs-578T, > 100 µM (inactive). The GI50 with K562, with LOX IMVI, in the experiment on MDA-MB-435, in the experiment on Malme-3M, in the experiment on NCI-H226 and with OVCAR-4 was > 100 µM (inactive) throughout. Besides, the GI50 in the experiment with OVCAR-8 is > 100 µM (inactive); in the experiment on PC-3 it was > 100 µM (inactive); with SF-295, > 100 µM (inactive); in the experiment with SK-MEL-2 it was 84.1 µM (inactive); with SK-OV-3, > 100 µM (inactive); in the experiment with U-251, > 100 µM (inactive). Further, in the experiment with UO-31, the GI50 is > 100 µM (inactive).
`CC(=O)O/N=C(Cl)/C(Cl)=N/OC(C)=O`: the GI50 in the experiment with A549 was > 100 µM (inactive); with EKVX, > 100 µM (inactive); with HCT-15, over 100 µM; in the experiment with HL-60, > 100 µM (inactive); with HT-29 it was > 100 µM (inactive); with K562, > 100 µM (inactive). The GI50 in the experiment on LOX IMVI, in the experiment with Malme-3M, in the experiment on NCI-H226, in the experiment on NCI-H522, in the experiment with OVCAR-4 and in the experiment with OVCAR-8 was > 100 µM (inactive) throughout. The GI50 in the experiment on SF-295, in the experiment on SK-MEL-2, with SK-OV-3, in the experiment with U-251 and in the experiment with UO-31 was > 100 µM (inactive) throughout.
For the compound `Cc1cccc(N2CCN(S(=O)(=O)c3ccc(Cl)cc3)C2=N)c1C`, the GI50 in the experiment with A549 was > 100 µM (inactive); with HT-29 it was > 100 µM (inactive); in the experiment on K562, 33.1 µM (inactive); in the experiment with MDA-MB-435, > 100 µM (inactive); in the experiment on NCI-H226, > 100 µM (inactive); with OVCAR-8, 93.8 µM (inactive). The GI50 in the experiment with SF-295 is 77.4 µM (inactive); in the experiment on SK-OV-3, > 100 µM (inactive); in the experiment on U-251, > 100 µM (inactive); with UO-31 it was 47.9 µM (inactive).
As to `CC(C)=CCC[C@@H](C)C1=C(O)C(=O)C(C)=C(c2c(I)c(=O)n(C)c(=O)n2C)C1=O`, the GI50 in the experiment on A549 was 61 µM (inactive); in the experiment on EKVX it was > 100 µM (inactive); with HCT-15, over 100 µM; with HL-60, 74.6 µM (inactive); in the experiment with HT-29, > 100 µM (inactive); in the experiment with Hs-578T, 76.6 µM (inactive). The GI50 with K562 is 61.9 µM (inactive); in the experiment on LOX IMVI it was > 100 µM (inactive); in the experiment on MDA-MB-435, > 100 µM (inactive); in the experiment with Malme-3M it was > 100 µM (inactive); in the experiment on NCI-H226, > 100 µM (inactive); with OVCAR-4 it was > 100 µM (inactive). In addition, the GI50 is > 100 µM (inactive) with OVCAR-8; 49.7 µM (inactive) with PC-3; > 100 µM (inactive) with SF-295; > 100 µM (inactive) in the experiment on SK-MEL-2; > 100 µM (inactive) with SK-OV-3; > 100 µM (inactive) in the experiment with UO-31.
As to `CC(C)(C)C(=O)Nc1c(C=O)ccc2[nH]cnc12`, the GI50 in the experiment with A549 was > 100 µM (inactive); with EKVX it was > 100 µM (inactive); with HCT-15 it was over 100 µM; in the experiment with K562 it was 42.8 µM (inactive); in the experiment with LOX IMVI, 62.8 µM (inactive); with MDA-MB-435, > 100 µM (inactive). Also, the GI50 is > 100 µM (inactive) with NCI-H226; > 100 µM (inactive) in the experiment with NCI-H522; > 100 µM (inactive) with OVCAR-4; > 100 µM (inactive) in the experiment with OVCAR-8; 74.3 µM (inactive) in the experiment on PC-3; > 100 µM (inactive) with SF-295. Besides, the GI50 in the experiment with SK-MEL-2 was > 100 µM (inactive); in the experiment with SK-OV-3, > 100 µM (inactive); in the experiment on U-251 it was 82.4 µM (inactive); with UO-31 it was > 100 µM (inactive).
With `CS(=O)(=O)O[C@H]1[C@H](O)c2ccccc2[C@@H]1N=[N+]=[N-]`, the GI50 with A549 was > 100 µM (inactive); with EKVX, > 100 µM (inactive); with HCT-15, over 100 µM; in the experiment on HL-60, > 100 µM (inactive); in the experiment on HT-29, > 100 µM (inactive); in the experiment on K562 it was > 100 µM (inactive). Moreover, the GI50 in the experiment with LOX IMVI, with MDA-MB-435, in the experiment on Malme-3M, in the experiment with NCI-H226, in the experiment on NCI-H522 and with OVCAR-4 was > 100 µM (inactive) in each case. Also, the GI50 in the experiment on OVCAR-8, with PC-3, in the experiment on SF-295, in the experiment on SK-MEL-2, with SK-OV-3 and with U-251 was > 100 µM (inactive) each time. Further, in the experiment with UO-31, the GI50 was > 100 µM (inactive).
As for `CC(=O)O[C@H]1C(=O)[C@@]2(C)C(C(OC(=O)c3ccccc3)[C@]3(O)CC(OC(=O)C(O)C(NC(=O)c4cccc(Cl)c4)c4ccccc4)C(C)=C1C3(C)C)[C@]1(OC(C)=O)CO[C@@H]1C[C@@H]2O` (some centres undefined), the GI50 is 0.693 µM (active) with A549; > 10 µM (inactive) in the experiment with EKVX; 2.62 µM with HCT-15; 0.148 µM (active) with HL-60; 0.269 µM (active) in the experiment on HT-29; 0.562 µM (active) in the experiment on K562. For the same compound, the GI50 was 0.841 µM (active) in the experiment on LOX IMVI; 0.118 µM (active) in the experiment on MDA-MB-435; 2.75 µM (inactive) with Malme-3M; > 10 µM (inactive) in the experiment with NCI-H226; 0.912 µM (active) with NCI-H522; 3.96 µM (inactive) in the experiment on OVCAR-4. For the same compound, the GI50 is 0.653 µM (active) in the experiment on OVCAR-8; 1.53 µM (inactive) with PC-3; 1.15 µM (inactive) in the experiment with SF-295; 0.656 µM (active) in the experiment with SK-MEL-2; 3.67 µM (inactive) in the experiment on SK-OV-3; 1.25 µM (inactive) in the experiment with U-251.
On to `CC1=NN(C(=O)c2ccccc2O)C(=O)/C1=C/c1ccco1`, for which the GI50 was 7.19 µM (inactive) in the experiment on A549; 3.06 µM (inactive) in the experiment on EKVX; 2.22 µM with HCT-15; 1.49 µM (inactive) in the experiment with HL-60; 12.4 µM (inactive) in the experiment on HT-29; 2.64 µM (inactive) in the experiment on K562. For the same compound, the GI50 is 2.67 µM (inactive) in the experiment with LOX IMVI; 0.581 µM (active) in the experiment on MDA-MB-435; 11.9 µM (inactive) in the experiment with Malme-3M; 3.46 µM (inactive) with NCI-H226; 1.74 µM (inactive) in the experiment with NCI-H522; 3.46 µM (inactive) with OVCAR-4. The GI50 was 2.59 µM (inactive) in the experiment with OVCAR-8; 3.04 µM (inactive) in the experiment with PC-3; 3.58 µM (inactive) in the experiment with SF-295; 5.02 µM (inactive) in the experiment with SK-MEL-2; 5.7 µM (inactive) in the experiment on SK-OV-3; 6.89 µM (inactive) with U-251. Further, the GI50 in the experiment on UO-31 is 0.404 µM (active).
